pEC50: −log10 of the molar value. Some results are limits rather than exact numbers.

In this experiment the target is T1, acetylcholine muscarinic M1 receptor (Homo sapiens, UniProt P11229).
T1 construct: expressed in transfected cells; host or cells: CHOnfat cells (CHO cells with an NFAT reporter) expressing hM1, kept under Geneticin selection
T1 sequence (P11229 1-460): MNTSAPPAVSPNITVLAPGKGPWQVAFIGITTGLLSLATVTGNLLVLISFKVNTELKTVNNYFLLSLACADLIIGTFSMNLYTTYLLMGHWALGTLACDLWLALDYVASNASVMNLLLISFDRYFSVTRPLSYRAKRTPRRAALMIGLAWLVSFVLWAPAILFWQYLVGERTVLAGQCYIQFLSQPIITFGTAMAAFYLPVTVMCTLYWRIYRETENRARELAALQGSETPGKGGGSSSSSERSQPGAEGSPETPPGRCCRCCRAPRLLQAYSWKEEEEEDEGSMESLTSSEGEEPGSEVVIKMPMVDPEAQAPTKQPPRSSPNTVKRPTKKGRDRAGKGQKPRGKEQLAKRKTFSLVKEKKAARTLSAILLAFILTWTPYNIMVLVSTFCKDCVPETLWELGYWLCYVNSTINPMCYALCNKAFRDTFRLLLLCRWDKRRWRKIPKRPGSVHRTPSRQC
Description: muscarinic FLIPR assay: intracellular calcium in CHOnfat/hM1 cells, potentiation of EC20 acetylcholine. Type of experiment: cell-based. The conditions noted are these: Table 1; CHOnfat/hM1 cells, FLIPR, EC20 acetylcholine (3 nM final); read-out: M1 Pot. The procedure:
The assay studies the effect of one or several concentrations of test compounds on basal or acetylcholine-stimulated Ca^2+ levels using FLIPR.
Compounds are prepared and subjected to a preincubation period of […]. Thereafter, a single EC20 concentration of acetylcholine is added to each well (3 nM final). The intracellular Ca^2+ level of each sample is measured and compared to an acetylcholine control to determine any modulatory activity.
Cells: CHOnfat/hM1, hM2, hM3 or hM4 cells are plated 24 hr before the assay at a density of 18,000 cells/well (100 μL) in a 384 well plate. CHOnfat/hM1 and CHOnfat/hM3 Growth Medium: 90% DMEM (Hi Glucose); 10% HI FBS; 2 mM L-glutamine; 0.1 mM NEAA; Pen-Strep; and 1 mg/ml Geneticin, are added. For M2Gqi5CHOnfat and M4Gqi5CHOnfat cells, an additional 600 ug/ml hygromycin is added.
Equipment: 384 well plate, 120 μl, addition plate; 96-well Whatman 2 ml Uniplate Incubator, 37° C., 5% CO2; Skatron EMBLA-384 Plate Washer; Multimek Pipetting System; Genesis Freedom 200 System; Mosquito System; Temo Nanolitre Pipetting System; and FLIPR^384 Fluorometric Imaging Plate Reader System are used.
Buffers. Assay Buffer: Hanks Balanced Salt Solution, with 20 mM Hepes, 2.5 mM Probenecid (Sigma P-8761) first dissolved in 1 N NaOH, 1% Bovine Serum Albumin (Sigma A-9647). Dye Loading Buffer: Assay Buffer plus 1% Fetal Bovine Serum and Fluo-4AM/Pluronic Acid Mixture. 2 mM Fluo-4AM ester stock in DMSO (Molecular Probes F-14202) Concentration of 2 μM in buffer for a final concentration of 1 μM in Assay. 20% Pluronic Acid Solution stock, with concentration of 0.04% in Buffer, 0.02% in Assay.
65 μL of 2 mM Fluo-4AM are mixed with 130 μL of 20% Pluronic Acid. The resulting solution and 650 μL FBS is added to the assay buffer for a total volume of 65 mL. Positive Controls: 4-Br-A23187: 10 mM in DMSO; final concentration 10 μM. Acetylcholine: 10 mM in water, working stock at both 20 μM and 30 μM in assay buffer, final concentration of 10 μM. This is used to check the maximum stimulation of the CHOK1/hM1 cells. 20 μM (2×) acetylcholine is added in the preincubation part of the assay, and the 30 μM (3×) stock is added in the second part. (EC20)Acetylcholine: 10 mM in water, working stock of 9 nM (3×), and final concentration in assay is 3 nM. This is used after the preincubation with test compounds. Addition of the EC20 Acetylcholine to each well with a test compound will ascertain any modulator activity. 24 wells contain 3 nM Acetylcholine alone as a control.
Determining Activity of Putative Compounds:
Screening Plate Compounds are titrated in 96-well plates (columns 2-11), 100% DMSO, started at a concentration of 15 mM (150× stock concentration), and 3-fold serial dilutions using Genesis Freedom200 System. Four 96-well plates are combined into a 384-well plate using Mosquito Nanolitre Pipetting System by transferring 1 μl of serial diluted compounds to each well, and 1 mM acetylcholine (100× stock concentration) were added as a control. Using Temo, 49 μl assay buffer is added to each well of the 384-well plate right before assay.
In a 96-well Whatman 2 ml Uniplate, 9 nM Acetylcholine (3×) is pipetted into wells corresponding to the screening compounds, and into control wells. The 30 μM acetylcholine control (3×) is added into control wells, and the 3× agonist plate is transferred into a 384 well plate.
Cells are washed three times with 100 μL of buffer, leaving […] of buffer in each well. Using Multimek, 30 μL of Dye Loading Buffer is added into each well and incubated at 37° C., 5% CO2 for up to one hr.
After 60 min, the cells are washed three times with 100 μL of buffer, leaving 30 μL of buffer in each well. The cell plate, screening plate, and agonist addition plates are placed on the platform in the FLIPR and the door closed. A signal test to check background fluorescence and basal fluorescence signal is performed. Laser intensity is adjusted if necessary.
On the technique in general: A change in cytosolic calcium serves as a functional read-out for many receptors and channels.
Regarding `CC(=O)N1CCN(Cc2cc3c(c4ccccc24)CN(C2CCCCC2O)C3=O)CC1` (stereo not shown) [Example 14, 5-[(4-acetylpiperazin-1-yl)methyl]-2-(2-hydroxycyclohexyl)-1,2-dihydro-3H-benzo[e]isoindol-3-one], the pEC50 was 5.59.
Consider `CS(=O)(=O)N1CCN(Cc2cc3c(c4ccccc24)CN(C2CCCCC2O)C3=O)CC1` (stereo not shown) [Example 15, 2-(2-hydroxycyclohexyl)-5-{[4-(methylsulfonyl)piperazin-1-yl]methyl}-1,2-dihydro-3H-benzo[e]isoindol-3-one], for which the pEC50 is 6.14.
With `CC1CCCN(Cc2cc3c(c4ccccc24)CN(C2CCCCC2O)C3=O)C1` (stereo not shown) [Example 16, 2-(2-hydroxycyclohexyl)-5-[(3-methylpiperidin-1-yl)methyl]-1,2-dihydro-3H-benzo[e]isoindol-3-one], the pEC50 is 5.11.
In the case of `O=C1c2cc(CN3CCCC(F)C3)c3ccccc3c2CN1C1CCCCC1O` (stereo not shown) [Example 17, 5-[(3-fluoropiperidin-1-yl)methyl]-2-(2-hydroxycyclohexyl)-1,2-dihydro-3H-benzo[e]isoindol-3-one], the pEC50 is 6.49.
Turning to `O=C1c2cc(CN3CCCC(F)(F)C3)c3ccccc3c2CN1C1CCCCC1O` (stereo not shown) [Example 18, 5-[(3,3-difluoropiperidin-1-yl)methyl]-2-(2-hydroxycyclohexyl)-1,2-dihydro-3H-benzo[e]isoindol-3-one], the pEC50 was 6.80.
Regarding `N#CC1(F)CCN(Cc2cc3c(c4ccccc24)CN([C@H]2CCCC[C@@H]2O)C3=O)CC1` [Example 19, 4-fluoro-1-({2-[(1S,2S)-2-hydroxycyclohexyl]-3-oxo-2,3-dihydro-1H-benzo[e]isoindol-5-yl}methyl)piperidine-4-carbonitrile], the pEC50 is 7.43.
Take `N#CC1CCN(Cc2cc3c(c4ccccc24)CN([C@H]2CCCC[C@@H]2O)C3=O)CC1` [Example 20, 1-({2-[(1S,2S)-2-hydroxycyclohexyl]-3-oxo-2,3-dihydro-1H-benzo[e]isoindol-5-yl}methyl)piperidine-4-carbonitriIe]: the pEC50 is 7.03.
As to `CC1CCN(Cc2cc3c(c4ccccc24)CN([C@H]2CCCC[C@@H]2O)C3=O)CC1` [Example 21, 2-[(1S,2S)-2-hydroxycyclohexyl]-5-[(4-methylpiperidin-1-yl)methyl]-1,2-dihydro-3H-benzo[e]isoindol-3-one], the pEC50 was 5.82.
Consider `O=C1c2cc(CN3CCC(O)CC3)c3ccccc3c2CN1C1CCCCC1O` (stereo not shown) [Example 22, 2-(2-hydroxycyclohexyl)-5-[(4-hydroxypiperidin-1-yl)methyl]-1,2-dihydro-3H-benzo[e]isoindol-3-one], for which the pEC50 was 6.32.
With `O=C1c2cc(CN3CCCC3)c3ccccc3c2CN1C1CCCCC1O` (stereo not shown) [Example 23, 2-(2-Hydroxycyclohexyl)-5-(pyrrolidin-1-ylmethyl)-1,2-dihydro-3H-benzo[e]isoindol-3-one], the pEC50 was 5.42.
For the compound `O=C1c2cc(CN3CCOCC3)c3ccccc3c2CN1C1CCCCC1O` (stereo not shown) [Example 24, 2-(2-hydroxycyclohexyl)-5-(morpholin-4-ylmethyl)-1,2-dihydro-3H-benzo[e]isoindol-3-one], the pEC50 is 6.82.
For `O=C1c2cc(CN3CCC(F)(F)CC3)c3ccccc3c2CN1C1CCCCC1O` (stereo not shown) [Example 25, 5-[(4,4-difluoropiperidin-1-yl)methyl]-2-(2-hydroxycyclohexyl)-1,2-dihydro-3H-benzo[e]isoindol-3-one], the pEC50 is 7.92.
For `O=C1c2cc(CN3CCC(F)CC3)c3ccccc3c2CN1C1CCCCC1O` (stereo not shown) [Example 26, 5-[(4-fluoropiperidin-1-yl)methyl]-2-(2-hydroxycyclohexyl)-1,2-dihydro-3H-benzo[e]isoindol-3-one], the pEC50 was 6.80.
On to `O=C1c2cc(CN3CCC(C(F)(F)F)CC3)c3ccccc3c2CN1C1CCCCC1O` (stereo not shown) [Example 27, 2-(2-hydroxycyclohexyl)-5-{[4-(trifluoromethyl)piperidin-1-yl]methyl}-1,2-dihydro-3H-benzo[e]isoindol-3-one], for which the pEC50 is 6.44.
Turning to `O=C1c2cc(CN3CC(O)C(F)C3)c3ccccc3c2CN1C1CCCCC1O` (stereo not shown) [Example 28, 5-[(3-fluoro-4-hydroxypyrrolidin-1-yl)methyl]-2-(2-hydroxycyclohexyl)-1,2-dihydro-3H-benzo[e]isoindol-3-one], the pEC50 is 5.92.
With `O=C1c2cc(CN3CCCC3C(F)(F)F)c3ccccc3c2CN1C1CCCCC1O` (stereo not shown) [Example 30, 2-(2-hydroxycyclohexyl)-5-{[2-(trifluoromethyl)pyrrolidin-1-yl]methyl}-1,2-dihydro-3H-benzo[e]isoindol-3-one], the pEC50 was 5.57.
As for `O=C1c2cc(CN3CC[C@H](F)C3)c3ccccc3c2CN1C1CCCCC1O` (stereo partly drawn) [Example 32, 5-{[(3S)-3-fluoropyrrolidin-1-yl]methyl}-2-(2-hydroxycyclohexyl) 1,2-dihydro-3H-benzo[e]isoindol-3-one], the pEC50 is 5.74.
`O=C1c2cc(CN3CCC(F)(F)C3)c3ccccc3c2CN1C1CCCCC1O` (stereo not shown) [Example 33, 5-[(3,3-difluoropyrrolidin-1-yl)methyl]-2-(2-hydroxycyclohexyl)-1,2-dihydro-3H-benzo[e]isoindol-3-one]: the pEC50 was 6.62.
`O=C1c2cc(CN3CCN(CC(F)(F)F)CC3)c3ccccc3c2CN1C1CCCCC1O` (stereo not shown) [Example 34, 2-(2-hydroxycyclohexyl)-5-{[4-(2,2,2-trifluoroethyl)piperazin-1-yl]methyl}-1,2-dihydro-3H-benzo[e]isoindol-3-one]: the pEC50 is 5.72.
As to `CC1(O)CCN(Cc2cc3c(c4ccccc24)CN(C2CCCCC2O)C3=O)CC1` (stereo not shown) [Example 37, 2-(2-hydroxycyclohexyl)-5-[(4-hydroxy-4-methylpiperidin-1-yl)methyl]-1,2-dihydro-3H-benzo[e]isoindol-3-one], the pEC50 is under 5.96.
In the case of `CC1(C)CCN(Cc2cc3c(c4ccccc24)CN(C2CCCCC2O)C3=O)CC1` (stereo not shown) [Example 38, 5-[(4,4-dimethylpiperidin-1-yl)methyl]-2-(2-hydroxycyclohexyl)-1,2-dihydro-3H-benzo[e]isoindol-3-one], the pEC50 is 6.17.
With `O=C1c2cc(CN3CCC(C4CC4)CC3)c3ccccc3c2CN1C1CCCCC1O` (stereo not shown) [Example 39, 5-[(4-cyclopropylpiperidin-1-yl)methyl]-2-(2-hydroxycyclohexyl)-1,2-dihydro-3H-benzo[e]isoindol-3-one], the pEC50 was 5.28.

The values are drawn from patent publication US9206200B2, “N-linked lactam M1 receptor positive allosteric mogulators” (Merck Sharp & Dohme Corp., priority 2011, dated 2015).
